Test results reported in patent publication US8329645B2, “Polymyxin derivatives and uses thereof” (priority 2008, dated 2012).
Read-outs that look alike come from different tables or passages of the source. Where a SMILES comes first, the peptide text is derived from it. Bridges are numbered along the chain shown (N, C = ends). [ ]: non-standard residue; d: D form. The star is where a group is joined. Decanoyl = CCCCCCCCCC(=O)*; Dab = NCC[C@H](N)C(=O)O

Columns and labels:
A. baumannii ATCC 19606 = test system: A. baumannii ATCC 19606
Experimental: (§1) Polymyxin B sulfate (Sigma-Aldrich, St. Louis, Mo., USA) was used as a control. […] The bacterial test strains originated from ATCC (10 strains), CCUG (11 strains), and NCTC (3 strains). Fourteen (14) strains (the F-strains) were purchased from Mobidiag Ltd., Helsinki, Finland.
(§2) The inocula were prepared by adjusting the bacterial suspensions to a density equivalent to OD546 nm˜0.3 (˜10^8 CFU/ml˜0.5 McFarland) the yeast suspension to a density equivalent to OD546 nm˜0.75 (˜2×10^7 CFU/ml)._The suspensions were diluted to 10^7 CFU/ml. The plates were inoculated by using a Denley Multipoint Inoculator, 1 μl per spot corresponding to approx. 10^4 CFU/spot. Plates were incubated for 16-20 hours at 35° C.

A. baumannii F263 = test system: A. baumannii F263
Experimental: as §1, §2

C. albicans ATCC 28366 = test system: C. albicans ATCC 28366
Experimental: as §1, §2

C. freundii ATCC 8090 = test system: C. freundii ATCC 8090
Experimental: as §1, §2

E. cloacae ATCC 23355 = test system: E. cloacae ATCC 23355
Experimental: as §1, §2

E. cloacae CCUG 52947 = test system: E. cloacae CCUG 52947
Experimental: as §1, §2

E. cloacae F230 = test system: E. cloacae F230
Experimental: as §1, §2

E. cloacae F231 = test system: E. cloacae F231
Experimental: as §1, §2

E. cloacae F232 = test system: E. cloacae F232
Experimental: as §1, §2

E. coli ATCC 25922 = test system: E. coli ATCC 25922
Experimental: as §1, §2

E. coli CCUG 41424 = test system: E. coli CCUG 41424
Experimental: as §1, §2

E. coli CCUG 41425 = test system: E. coli CCUG 41425
Experimental: as §1, §2

E. coli CCUG 41427 = test system: E. coli CCUG 41427
Experimental: as §1, §2

E. coli CCUG 41429 = test system: E. coli CCUG 41429
Experimental: as §1, §2

E. coli CCUG 41432 = test system: E. coli CCUG 41432
Experimental: as §1, §2

E. coli F10 = test system: E. coli F10
Experimental: as §1, §2

E. coli F19 = test system: E. coli F19
Experimental: as §1, §2

E. coli F8 = test system: E. coli F8
Experimental: as §1, §2

E. coli F9 = test system: E. coli F9
Experimental: as §1, §2

E. coli IH3080 = test system: E. coli IH3080
Experimental: as §1, §2

E. coli NCTC 13352 = test system: E. coli NCTC 13352
Experimental: as §1, §2

E. coli NCTC 13353 = test system: E. coli NCTC 13353
Experimental: as §1, §2

K. oxytoca ATCC 13182 = test system: K. oxytoca ATCC 13182
Experimental: as §1, §2

K. oxytoca CCUG 51683 = test system: K. oxytoca CCUG 51683
Experimental: as §1, §2

K. pneumoniae ATCC 13883 = test system: K. pneumoniae ATCC 13883
Experimental: as §1, §2

K. pneumoniae CCUG 45421 = test system: K. pneumoniae CCUG 45421
Experimental: as §1, §2

K. pneumoniae F136 = test system: K. pneumoniae F136
Experimental: as §1, §2

K. pneumoniae F144 = conditions: K. pneumoniae F144
Experimental: as §1, §2

K. pneumoniae F145 = test system: K. pneumoniae F145
Experimental: as §1, §2

P. aeruginosa ATCC 27853 = test system: P. aeruginosa ATCC 27853
Experimental: as §1, §2

P. aeruginosa CCUG 51971 = test system: P. aeruginosa CCUG 51971
Experimental: as §1, §2

P. aeruginosa F58 = test system: P. aeruginosa F58
Experimental: as §1, §2

S. aureus ATCC 25923 = test system: S. aureus ATCC 25923
Experimental: as §1, §2

[1] = test system: S. maltophilia ATCC 17444
Experimental: as §1, §2

S. marcescens ATCC 8100 = test system: S. marcescens ATCC 8100
Experimental: as §1, §2

Measured: MIC

CCCCCCCCCC(=O)N[C@H](C(=O)N[C@H](CO)C(=O)N[C@H]1CCNC(=O)[C@H]([C@@H](C)O)NC(=O)[C@H](CCN)NC(=O)[C@H](CCN)NC(=O)[C@H](CC(C)C)NC(=O)[C@@H](Cc2ccccc2)NC(=O)[C@H](CCN)NC1=O)[C@@H](C)O [NAB 740, DA-Thr-DSer-cy[Dab-Dab-DPhe-Leu-Dab-Dab-Thr-]] (Decanoyl-T[dS][Dab][Dab][dF]L[Dab][Dab]T; lactam 3-C)
8 mg/L: P. aeruginosa CCUG 51971 | [1]; ATCC 17444
4 mg/L: A. baumannii ATCC 19606; ATCC 19606 | K. pneumoniae CCUG 45421; CCUG 45421 | P. aeruginosa ATCC 27853; ATCC 27853 | P. aeruginosa F58; F58
8 µg/mL: K. pneumoniae ATCC 13883; ATCC 13883
1 mg/L: E. coli CCUG 41427; CCUG 41427 | E. coli CCUG 41429; CCUG 41429 | E. coli F19; F19 | E. coli NCTC 13352; NCTC 13352
2 mg/L: A. baumannii F263; F263 | C. freundii ATCC 8090; ATCC 8090 | E. cloacae ATCC 23355; ATCC 23355 | E. cloacae CCUG 52947; CCUG 52947 | E. cloacae F230; F230 | E. cloacae F231; F231 | E. cloacae F232; F232 | E. coli ATCC 25922; ATCC 25922 | E. coli CCUG 41424; CCUG 41424 | E. coli CCUG 41425; CCUG 41425 | E. coli CCUG 41432; CCUG 41432 | E. coli F10; F10 | E. coli F8; F8 | E. coli F9; F9 | E. coli IH3080; IH3080 | E. coli NCTC 13353; NCTC 13353 | K. oxytoca ATCC 13182; ATCC 13182 | K. oxytoca CCUG 51683; CCUG 51683 | K. pneumoniae F136; F136 | K. pneumoniae F145; F145
>32 mg/L: C. albicans ATCC 28366; ATCC 28366 | S. aureus ATCC 25923; ATCC 25923 | S. marcescens ATCC 8100; ATCC 8100
16(−4) μg/ml: K. pneumoniae F144

Polymyxin B [reference compound]
32(−8) μg/ml: K. pneumoniae ATCC 13883; K. pneumoniae ATCC13883
0.5 mg/L: E. cloacae ATCC 23355; E. cloacae ATCC23355 | E. cloacae F230; E. cloacae F230 | E. cloacae F231; E. cloacae F231 | E. cloacae F232; E. cloacae F232 | E. coli CCUG 41425; E. coli CCUG41425 | E. coli F10; E. coli F10 | E. coli F9; E. coli F9 | E. coli IH3080; E. coli IH3080 | K. oxytoca ATCC 13182; K. oxytoca ATCC13182 | K. oxytoca CCUG 51683; K. oxytoca CCUG51683 | K. pneumoniae F136; K. pneumoniae F136 | K. pneumoniae F145; K. pneumoniae F145 | P. aeruginosa F58; P. aeruginosa F58
>32 mg/L: C. albicans ATCC 28366; C. albicans ATCC 28366 | S. aureus ATCC 25923; S. aureus ATCC 25923 | S. marcescens ATCC 8100; S. marcescens ATCC8100
1 mg/L: A. baumannii ATCC 19606; A. baumannii ATCC 19606 | A. baumannii F263; A. baumannii F263 | C. freundii ATCC 8090; C. freundii ATCC8090 | E. cloacae CCUG 52947; E. cloacae CCUG52947 | E. coli ATCC 25922; E. coli ATCC25922 | E. coli CCUG 41424; E. coli CCUG41424 | E. coli CCUG 41427; E. coli CCUG41427 | E. coli CCUG 41429; E. coli CCUG41429 | E. coli CCUG 41432; E. coli CCUG41432 | E. coli F19; E. coli F19 | E. coli F8; E. coli F8 | E. coli NCTC 13353; E. coli NCTC13353 | K. pneumoniae CCUG 45421; K. pneumoniae CCUG45421 | P. aeruginosa ATCC 27853; P. aeruginosa ATCC27853 | [1]; S. maltophilia ATCC17444
0.25 mg/L: E. coli NCTC 13352; E. coli NCTC 13352
1 µg/mL: K. pneumoniae F144
